IC50 data for 34 compounds are collected here from ChEMBL document CHEMBL1955780, “In silico scaffold evaluation and solid phase approach to identify new gelatinase inhibitors” (Bioorg Med Chem, 2012).

Where only a bound is given, the exact number is not on record here.

Assay [1] concerns the target 72 kDa type IV collagenase (Homo sapiens, UniProt P08253). The assay is described as follows: Inhibition of full length MMP2 using Mca-Pro-Leu-Gly-Leu-Dpa-Ala-Arg-NH2 as substrate preincubated for 1 hr prior substrate addition measured after 3 hrs by spectrofluorimetry.
The target in assay [2] is Matrix metalloproteinase-9 (Homo sapiens, UniProt P14780). Kind of assay: Inhibition of MMP9 catalytic domain using Mca-Pro-Leu-Gly-Leu-Dpa-Ala-Arg-NH2 as substrate preincubated for 1 hr prior substrate addition measured after 3 hrs by spectrofluorimetry.
Assay [3] addresses T1, Interstitial collagenase (Homo sapiens, UniProt P03956).
T1 sequence (P03956 whole entry): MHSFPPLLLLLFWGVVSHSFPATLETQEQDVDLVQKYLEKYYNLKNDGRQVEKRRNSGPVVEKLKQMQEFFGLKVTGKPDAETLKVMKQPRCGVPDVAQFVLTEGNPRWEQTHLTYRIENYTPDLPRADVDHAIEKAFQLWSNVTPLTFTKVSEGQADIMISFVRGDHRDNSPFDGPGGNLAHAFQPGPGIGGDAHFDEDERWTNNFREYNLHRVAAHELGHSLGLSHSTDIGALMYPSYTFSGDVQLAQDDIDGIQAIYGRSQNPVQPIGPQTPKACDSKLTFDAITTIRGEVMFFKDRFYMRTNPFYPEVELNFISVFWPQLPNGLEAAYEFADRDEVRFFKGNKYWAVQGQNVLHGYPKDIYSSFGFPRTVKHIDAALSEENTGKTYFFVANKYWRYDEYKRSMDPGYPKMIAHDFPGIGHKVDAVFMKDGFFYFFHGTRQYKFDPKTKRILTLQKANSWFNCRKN
Kind of assay: Inhibition of MMP1 catalytic domain using Mca-Pro-Leu-Gly-Leu-Dpa-Ala-Arg-NH2 as substrate preincubated for 1 hr prior substrate addition measured after 3 hrs by spectrofluorimetry.

Assay [4] concerns the target Stromelysin-1 (Homo sapiens, UniProt P08254). Kind of assay: Inhibition of MMP3 catalytic domain using Mca-Pro-Leu-Gly-Leu-Dpa-Ala-Arg-NH2 as substrate preincubated for 1 hr prior substrate addition measured after 3 hrs by spectrofluorimetry.
The target in assay [5] is Neutrophil collagenase (Homo sapiens, UniProt P22894). The assay is described as follows: Inhibition of MMP8 catalytic domain using Mca-Pro-Leu-Gly-Leu-Dpa-Ala-Arg-NH2 as substrate preincubated for 1 hr prior substrate addition measured after 3 hrs by spectrofluorimetry.
Assay [6] deals with Macrophage metalloelastase (Homo sapiens, UniProt P39900). Kind of assay: Inhibition of MMP12 catalytic domain using Mca-Pro-Leu-Gly-Leu-Dpa-Ala-Arg-NH2 as substrate preincubated for 1 hr prior substrate addition measured after 3 hrs by spectrofluorimetry.
The target of assay [7] is Matrix metalloproteinase-14 (Homo sapiens, UniProt P50281). Kind of assay: Inhibition of MMP14 catalytic domain using Mca-Pro-Leu-Gly-Leu-Dpa-Ala-Arg-NH2 as substrate preincubated for 1 hr prior substrate addition measured after 3 hrs by spectrofluorimetry.

Sequence of Macrophage metalloelastase (P39900 whole entry, the tested form may be a part): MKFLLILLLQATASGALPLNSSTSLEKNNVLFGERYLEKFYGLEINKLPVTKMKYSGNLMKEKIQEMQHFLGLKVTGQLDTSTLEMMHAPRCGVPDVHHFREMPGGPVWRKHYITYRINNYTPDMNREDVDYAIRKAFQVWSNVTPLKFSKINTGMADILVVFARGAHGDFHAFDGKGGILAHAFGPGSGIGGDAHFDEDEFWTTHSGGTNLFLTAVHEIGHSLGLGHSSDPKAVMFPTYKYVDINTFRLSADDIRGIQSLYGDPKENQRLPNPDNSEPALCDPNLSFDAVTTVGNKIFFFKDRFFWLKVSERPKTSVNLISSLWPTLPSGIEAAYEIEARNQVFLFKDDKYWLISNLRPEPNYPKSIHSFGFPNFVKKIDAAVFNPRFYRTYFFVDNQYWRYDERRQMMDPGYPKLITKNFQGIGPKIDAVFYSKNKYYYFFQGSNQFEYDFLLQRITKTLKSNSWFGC
Sequence of Stromelysin-1 (P08254 whole entry, the tested form may be a part): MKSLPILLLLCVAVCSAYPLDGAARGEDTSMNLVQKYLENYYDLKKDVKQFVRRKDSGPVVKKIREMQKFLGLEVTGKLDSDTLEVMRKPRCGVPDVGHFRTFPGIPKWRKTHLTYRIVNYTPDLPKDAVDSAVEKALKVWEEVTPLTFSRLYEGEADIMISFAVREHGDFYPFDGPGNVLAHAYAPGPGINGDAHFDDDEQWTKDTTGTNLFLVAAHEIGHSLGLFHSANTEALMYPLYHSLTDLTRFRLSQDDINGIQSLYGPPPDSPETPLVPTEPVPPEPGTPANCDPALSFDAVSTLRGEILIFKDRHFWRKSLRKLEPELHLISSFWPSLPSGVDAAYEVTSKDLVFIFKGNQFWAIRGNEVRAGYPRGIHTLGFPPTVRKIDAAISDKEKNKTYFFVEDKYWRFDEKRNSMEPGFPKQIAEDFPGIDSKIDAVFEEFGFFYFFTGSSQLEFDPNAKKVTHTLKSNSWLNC
Sequence of Neutrophil collagenase (P22894 whole entry, the tested form may be a part): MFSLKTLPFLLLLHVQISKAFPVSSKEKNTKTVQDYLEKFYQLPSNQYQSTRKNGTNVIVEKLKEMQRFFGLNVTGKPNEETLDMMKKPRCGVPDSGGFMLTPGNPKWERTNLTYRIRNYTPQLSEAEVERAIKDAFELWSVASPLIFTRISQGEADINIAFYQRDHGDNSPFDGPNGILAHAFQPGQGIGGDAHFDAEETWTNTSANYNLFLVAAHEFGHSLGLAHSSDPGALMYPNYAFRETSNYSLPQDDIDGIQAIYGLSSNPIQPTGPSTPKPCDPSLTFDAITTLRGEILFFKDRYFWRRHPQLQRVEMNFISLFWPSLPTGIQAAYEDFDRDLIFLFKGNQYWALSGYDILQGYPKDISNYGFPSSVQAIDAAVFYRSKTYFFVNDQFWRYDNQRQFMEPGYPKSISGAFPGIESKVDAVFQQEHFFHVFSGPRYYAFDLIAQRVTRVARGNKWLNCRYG
Sequence of 72 kDa type IV collagenase (P08253 whole entry, the tested form may be a part): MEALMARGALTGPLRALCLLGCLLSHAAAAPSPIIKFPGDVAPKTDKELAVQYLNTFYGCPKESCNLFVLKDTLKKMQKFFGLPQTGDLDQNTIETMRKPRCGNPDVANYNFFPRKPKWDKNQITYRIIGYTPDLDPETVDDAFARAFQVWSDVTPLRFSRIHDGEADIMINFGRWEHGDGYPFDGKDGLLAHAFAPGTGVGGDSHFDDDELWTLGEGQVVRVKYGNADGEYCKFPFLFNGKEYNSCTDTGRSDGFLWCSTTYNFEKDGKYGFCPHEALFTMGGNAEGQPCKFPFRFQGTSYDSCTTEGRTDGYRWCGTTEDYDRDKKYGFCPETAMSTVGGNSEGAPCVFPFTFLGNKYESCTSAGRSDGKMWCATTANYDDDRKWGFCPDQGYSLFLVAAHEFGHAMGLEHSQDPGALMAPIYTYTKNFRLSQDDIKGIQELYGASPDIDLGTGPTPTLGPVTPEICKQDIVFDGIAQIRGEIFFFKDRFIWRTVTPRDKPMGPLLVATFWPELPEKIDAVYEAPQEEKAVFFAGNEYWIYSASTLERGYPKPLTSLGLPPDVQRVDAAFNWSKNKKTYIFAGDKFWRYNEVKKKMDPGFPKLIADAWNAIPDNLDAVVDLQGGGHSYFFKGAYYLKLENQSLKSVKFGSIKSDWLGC
Sequence of Matrix metalloproteinase-9 (P14780 whole entry, the tested form may be a part): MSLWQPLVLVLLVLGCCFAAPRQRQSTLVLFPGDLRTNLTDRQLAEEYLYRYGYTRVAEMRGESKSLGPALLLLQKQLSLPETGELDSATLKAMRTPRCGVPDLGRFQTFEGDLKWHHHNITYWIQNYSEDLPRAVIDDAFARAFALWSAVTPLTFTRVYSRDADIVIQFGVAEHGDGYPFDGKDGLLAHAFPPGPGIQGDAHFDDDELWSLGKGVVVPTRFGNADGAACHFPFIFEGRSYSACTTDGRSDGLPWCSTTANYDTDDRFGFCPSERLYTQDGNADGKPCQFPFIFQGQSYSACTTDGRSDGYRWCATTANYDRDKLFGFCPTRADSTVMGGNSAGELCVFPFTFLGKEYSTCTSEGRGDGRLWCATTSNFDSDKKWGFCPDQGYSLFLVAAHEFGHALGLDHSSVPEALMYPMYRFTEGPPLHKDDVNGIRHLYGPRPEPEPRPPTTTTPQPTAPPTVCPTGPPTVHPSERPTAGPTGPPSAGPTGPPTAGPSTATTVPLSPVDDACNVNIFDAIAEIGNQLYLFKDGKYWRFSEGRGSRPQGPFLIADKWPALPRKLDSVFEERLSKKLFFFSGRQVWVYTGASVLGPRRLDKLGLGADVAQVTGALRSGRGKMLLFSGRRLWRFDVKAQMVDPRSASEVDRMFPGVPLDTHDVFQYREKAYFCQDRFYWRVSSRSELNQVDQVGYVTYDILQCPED

As a reminder, the IC50 is the concentration needed to halve the response being measured. A low value points to greater potency. `O=C(NO)[C@@H]1CCCN1S(=O)(=O)c1ccc(-c2ccccc2)cc1`: the IC50 in assay [1] worked out at 4 µM; in assay [2], 76 µM. For `O=C(NO)[C@@H]1CSCN1S(=O)(=O)c1ccc(Oc2ccc(Cl)cc2)cc1`, the half-inhibitory concentration (IC50) in assay [1] was determined as 0.013 µM; in assay [2] it was 0.016 µM; in assay [3], 1 µM; in assay [4], 0.16 µM.

On to `CCCCCc1ccc(C(=O)Nc2ccc(S(=O)(=O)N(CCN3CCOCC3)[C@@H](C(=O)NO)C(C)C)cc2)cc1`, for which the concentration for half-maximal inhibition (IC50) in assay [1] was less than 0.0001 µM.

Take `O=C(O)[C@H]1CCC(=O)N1Cc1ccc(-c2ccccc2)cc1`: it took 290 µM to reach half-maximal inhibition in assay [1] (IC50). Turning to `O=C(NO)[C@@H]1CSCN1S(=O)(=O)c1ccc2ccccc2c1`, the IC50 in assay [1] was 31 µM; in assay [2], greater than 50 µM.

With `O=C(NO)[C@@H]1CS(=O)(=O)CN1S(=O)(=O)c1ccc(Oc2ccc(Cl)cc2)cc1`, the concentration for half-maximal inhibition (IC50) in assay [1] stood at 0.0008 µM; in assay [2] it was 0.0005 µM; in assay [5] it was 0.004 µM; in assay [6], 0.019 µM; in assay [7], 0.005 µM. The compound `NC(=O)[C@H]1CCC(=O)N1Cc1ccc(-c2ccccc2)cc1` showed an IC50 in assay [1] greater than 500 µM. The same measure, in the same setting: with `O=C(O)[C@H]1CCC(=O)N1Cc1ccc(Cl)cc1` the figure was greater than 500 µM; with `O=C(O)[C@@H]1CCC(=O)N1Cc1ccc(Cl)cc1`, 383 µM. Take `O=C(NO)[C@@H]1CCC(=O)N1Cc1ccc(-c2ccccc2)cc1`: the IC50 came out at 9 µM in assay [1] and 144 µM in assay [2]. Take `O=C(NO)[C@@H]1C[C@@H](O)CN1Cc1ccc(-c2ccccc2)cc1`: the IC50 in assay [1] was greater than 500 µM. Turning to `O=C(NO)[C@@H]1CCCN1Cc1ccc(-c2ccccc2)cc1`, the IC50 in assay [1] was greater than 500 µM. As to `O=C(NO)[C@@H]1CSCN1S(=O)(=O)c1ccc(-c2ccccc2)cc1`, the IC50 in assay [1] amounted to 0.2 µM; in assay [2], 0.23 µM.

In turn, `O=C(O)[C@@H]1CCC(=O)N1Cc1ccccc1Cl` had an IC50 in assay [1] of 315 µM.

For `O=C(NO)[C@@H]1CSC(=O)N1Cc1ccc(-c2ccccc2)cc1`, the values for the IC50 in assay [1] and in assay [2] were 6.8 µM and 47 µM, respectively. The compound `NC(=O)[C@H]1CCC(=O)N1Cc1ccccc1Cl` returned a concentration for half-maximal inhibition (IC50) in assay [1] greater than 500 µM. Compound `O=C(NO)[C@@H]1CCC(=O)N1Cc1ccc(Cl)cc1` returned a 50% inhibitory concentration (IC50) in assay [1] greater than 500 µM. The same measure, in the same setting: next, `NC(=O)[C@@H]1CCC(=O)N1Cc1ccc(-c2ccccc2)cc1`: greater than 500 µM. In turn, `NC(=O)[C@@H]1CCC(=O)N1Cc1ccccc1Cl` gave a concentration for half-maximal inhibition (IC50) in assay [1] greater than 500 µM.

The compound `O=C(NO)[C@@H]1CSCN1Cc1ccc(-c2ccccc2)cc1` had a 50% inhibitory concentration (IC50) in assay [1] of 330 µM. Regarding `O=C(NO)[C@H]1CCC(=O)N1Cc1ccc(-c2ccccc2)cc1`, the results for the IC50 in assay [1] and in assay [2] were 3 µM and 30 µM, respectively.

As for `O=C(NO)[C@@H]1C[S+]([O-])CN1S(=O)(=O)c1ccc(-c2ccccc2)cc1` (some centres not stated), the IC50 amounted to 0.009 µM in assay [1]; 0.6 µM in assay [2]; 4 µM in assay [3]; 2 µM in assay [4]; 0.4 µM in assay [5]; 2.5 µM in assay [6]. In assay [7], this compound registered a 50% inhibitory concentration (IC50) of 0.16 µM. As to `O=C(NO)[C@H]1CCC(=O)N1Cc1ccc(Cl)cc1`, the concentration for half-maximal inhibition (IC50) in assay [1] was found to be 400 µM; in assay [2] it was 430 µM.

The compound `O=C(NO)[C@@H]1CCC(=O)N1Cc1ccccc1Cl` returned a half-inhibitory concentration (IC50) in assay [1] greater than 500 µM.

For `O=C(NO)[C@@H]1CS(=O)(=O)CN1S(=O)(=O)c1ccc(-c2ccccc2)cc1`, the half-inhibitory concentration (IC50) in assay [1] was determined as 0.053 µM; in assay [2], 0.48 µM; in assay [3], 2.5 µM; in assay [4], 4 µM; in assay [5], 0.1 µM; in assay [6], 0.5 µM. In assay [7], this compound came in with an IC50 of 3.8 µM. On to `COc1ccc(Oc2ccc(S(=O)(=O)N3CSC[C@H]3C(=O)NO)cc2)cc1`, for which the IC50 in assay [1] was 0.009 µM; in assay [2], 0.002 µM. In the case of `NC(=O)[C@@H]1CCC(=O)N1Cc1ccc(Cl)cc1`, the 50% inhibitory concentration (IC50) in assay [1] is greater than 500 µM.

Take `O=C(NO)[C@H]1CCC(=O)N1Cc1ccccc1Cl`: the IC50 in assay [1] and in assay [2] was greater than 500 µM throughout.

As to `O=C(O)[C@@H]1CCC(=O)N1Cc1ccc(-c2ccccc2)cc1`, the IC50 in assay [1] was found to be 340 µM. The same measure, in the same setting: with `O=C(O)[C@H]1CCC(=O)N1Cc1ccccc1Cl` the figure was greater than 500 µM. With `O=C(NO)[C@@H]1CCC(=O)N1S(=O)(=O)c1ccc(-c2ccccc2)cc1`, the 50% inhibitory concentration (IC50) is 1.7 µM in assay [1] and 1.9 µM in assay [2]. For the compound `O=C(NO)[C@@H]1CSCN1S(=O)(=O)c1ccc(Oc2ccc(F)cc2)cc1`, the half-maximal inhibitory concentration (IC50) in assay [1] was 0.01 µM; in assay [2], 0.005 µM; in assay [3] it was greater than 50 µM; in assay [4], 0.7 µM.

In the case of `O=C(NO)[C@@H]1CSCN1S(=O)(=O)c1cccc2cccnc12`, the half-inhibitory concentration (IC50) was 0.71 µM in assay [1] and 0.56 µM in assay [2]. `NC(=O)[C@H]1CCC(=O)N1Cc1ccc(Cl)cc1` came in with an IC50 in assay [1] greater than 500 µM.
